According to US20250009790A1, “METHODS FOR INDUCING VASODILATION” (THE FLOREY INSTITUTE OF NEUROSCIENCE AND MENTAL HEALTH, priority 2021, published 2025):
Entries after “also recorded” stand apart in the source; their conditions may differ.

Tests used:
CGRP receptors = target: T1, CGRP receptors (Rattus norvegicus, UniProt Q63118+Q9JJ74); assay: Zinc bis(histidinate)-induced cutaneous vasodilation after CGRP receptor antagonist pre-treatment (LDF); format: in vivo; settings: rat hind paw; BIBN4096 3 mg/kg i.v. pre-treatment before Zn-bis-His 3, 10 and 30 mg/kg i.v.
T1 construct: from tissue; host or cells: live anaesthetized rat, hind-paw skin vasculature (in vivo)
T1 sequence (Q63118 24-464): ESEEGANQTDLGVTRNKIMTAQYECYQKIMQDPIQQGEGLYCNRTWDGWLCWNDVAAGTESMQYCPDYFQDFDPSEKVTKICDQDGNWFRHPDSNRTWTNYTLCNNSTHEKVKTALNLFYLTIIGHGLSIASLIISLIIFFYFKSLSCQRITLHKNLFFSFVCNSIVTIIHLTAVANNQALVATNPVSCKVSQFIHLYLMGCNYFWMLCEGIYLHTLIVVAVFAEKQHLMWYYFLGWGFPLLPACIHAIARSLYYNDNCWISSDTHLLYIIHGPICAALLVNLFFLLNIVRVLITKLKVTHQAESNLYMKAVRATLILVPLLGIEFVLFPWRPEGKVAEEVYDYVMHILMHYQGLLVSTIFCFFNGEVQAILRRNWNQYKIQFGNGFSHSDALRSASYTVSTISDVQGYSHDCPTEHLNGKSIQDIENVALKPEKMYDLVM
T1 sequence (Q9JJ74 27-148): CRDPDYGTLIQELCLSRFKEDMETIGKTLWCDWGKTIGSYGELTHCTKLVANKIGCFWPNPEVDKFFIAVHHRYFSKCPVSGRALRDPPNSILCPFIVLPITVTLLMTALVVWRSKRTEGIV
Procedure: (§1) Rats were anaesthetized with urethane (2 g/kg i.p.) after light anaesthesia with inhalation of 5% isoflurane. A laser Doppler probe (OxyFlo probe MSP300XP; ADI Blood Flowmeter) was placed on one hind paw (hair removed with depilatory cream). The animal was allowed to stabilize for 30 min to establish baseline parameters. A single i.v. dose of zinc bis(histidinate) was then administered at 3 mg/kg. The haemodynamic and cutaneous blood flow measurements by laser Doppler flow (LDF) were recorded continuously for 15 min. Then, the effects of 10 mg/kg and 30 mg/kg doses of zinc bis(histidinate) were tested.
In order to better understand the effect of zinc bis(histidinate) on cutaneous blood flow, vasodilation mediated by sensory nerves was blocked by pre-treatment of the rat with a CGRP (calcitonin gene-related peptide) receptor antagonist. A dose of 3 mg/kg BIBN4096 (olcegepant, a known CGRP receptor antagonist was administered intravenously by slow infusion over 10 minutes prior to subsequent administration of zinc bis(histidinate) and measurement of cutaneous blood flow by LDF as described in Example 2.

rat hind paw = assay: Cutaneous blood flow by laser Doppler flow in anaesthetized rat hind paw; format: in vivo; settings: Zn-bis-His 3, 10 and 30 mg/kg i.v., L-His 67 mg/kg i.v.
Procedure: For in vivo measurements of cutaneous blood flow, an average of 3 s consecutive values calculated every 5 s were computed by LabChart software and the data were transformed as percentage of baseline (an average of 1.5 min recording before each dose). The area under the curve (AUC) for change from baseline values was calculated in Prism 8 software. MAP, hindquarter flow and conductance were taken immediately before and every 5 min after a single dose of treatment.
as §1

[1] = system: sheep during cardiopulmonary bypass; settings: cited from earlier work
rat mesenteric arteries = assay: Relaxation of isolated rat mesenteric arteries contracted with U46619 (myograph); format: cell-based; settings: arteries contracted with thromboxane mimetic U46619
Excerpt: Functional in vitro protocols in isolated arteries. Human internal mammary artery and saphenous vein or a range of vessels from rats and mice (left main or anterior descending coronary arteries [250-400 μm internal diameter, i.d.], second order pulmonary interlobar arteries [300-600 μm i.d.], second or third order mesenteric arteries [200-350 μm i.d.], interlobar renal arteries [250-350 μm i.d.], saphenous arteries or veins [300-600 μm i.d.]), or the thoracic aorta were dissected and placed in ice-cold PSS-A with the following composition (mmol/L, mM): NaCl 119; KCl 4.69; MgSO4·7H2O 1.17; KH2PO4 1.18; glucose 5.5; NaHCO3 25; CaCl2·6H2O 2.5 saturated with carbogen (O2 95%; CO2 5%) at pH 7.4. In addition, rat middle cerebral (250-400 μm i.d.) and basilar (250-450 μm i.d.) arteries were used and for these vessels the PSS-A contained 1.5 mM CaCl2 to minimize the occurrence of spontaneous contractions.
After isolation of vessels, ˜2 mm length segments of arteries were mounted in myograph chambers (Model 610M and 620M; Danish Myo Technology, Denmark) containing PSS-A at 37° C. for isometric force measurement as described previously. Contractile and relaxation responses using rat and mice isolated vessels were recorded with LabChart 7 and a PowerLab 4/30 A/D converter (AD Instruments Pty Ltd, Australia) while those including human isolated vessels were recorded with LabChart 8 (AD Instruments) and Myodaq and Myodata 2.01 (Maastricht University, Maastricht, Netherlands). To normalize the basal conditions, the vessels were passively stretched according to a normalization protocol and adjusted to a diameter setting of 90% of that determined for an equivalent transmural pressure of 100 mmHg (30 mmHg for veins). After allowing the tissues to equilibrate for 30 min, the arteries were exposed to a potassium depolarizing solution (124 mM K^+ replacing Na^+ in PSS; termed KPSS) and noradrenaline (10 μM) for 2 min (chemicals, their source and preparation are provided in the online supplement). A second exposure to KPSS solution (only) was used to provide a reference contraction.
Five structurally dissimilar zinc delivery agents (zinc pyrithione, zinc disulfiram, clioquinol, Zn(DTSM) and zinc bis(histidinate)) were administered to rat mesenteric arteries according to the protocols above and the extent to which the arteries contracted were recorded. Acetylcholine and clioquinol were also administered and contractions recorded.

[2] = Mean arterial pressure in anaesthetized rat (carotid artery catheter); format: in vivo; settings: bolus i.v. 3, 10 and 30 mg/kg, measured for 10 minutes
Procedure: In vivo blood pressure and flow measurement. Rats and mice were anaesthetized by inhalation of 5% isoflurane (in O2) followed by i.p. injection of pentobarbitone in rats (60 mg/kg; TROY Laboratories, NSW, Australia, maintained by top up doses of 10-20 mg/kg i.v.) or i.p. injection of urethane (2.5 g/kg; Sigma, maintained by top up doses of 0.05-0.1 g/kg i.v.). Animals were placed on a homeostatic blanket system to maintain body temperature at 37±1° C. Lignocaine (1% s.c.) was injected for placement of a tracheotomy tube (for mechanical ventilation), carotid artery and jugular vein catheters.
All drug treatments were administered via the jugular vein catheter. Pulsatile blood pressure, mean arterial pressure (MAP) and heart rate (HR; beats/min) were measured via the carotid artery catheter filled with heparinized (10 U/ml; Pfizer, NY, USA) saline 0.9% and connected to a pressure transducer (Argon Medical Devices, Athens, Greece) and the output was recorded with LabChart 7 and a Powerlab 8SP (AD Instruments). […]
An increase in cutaneous blood flow associated with vasorelaxation typically results in a decrease in arterial pressure. Mean arterial pressure in a rat after administration of zinc bis(histidine) (3 mg/kg, 10 mg/kg or 30 mg/kg) or L-histidine (67 mg/kg) was measured by a pressure transducer attached to a catheter inserted in carotid artery as described in Example 2.

[3] = system: ovine model of cardiopulmonary bypass; assay: Ovine cardiopulmonary bypass with intra-operative zinc bis(histidinate) infusion; format: in vivo; settings: sheep on CPB (2 h); 3, 10 and 30 mg/kg infusion i.v. every 20 min
Excerpt: Two merino ewes (35-50 kg bodyweight) were housed in individual metabolic cages with access to 5 litres of water and 800 g of oaten chaff daily. The sheep underwent a preparatory surgical procedure under isoflurane anaesthesia for the implantation of a transit-time flow probe around the renal artery for measurement of renal blood flow. Fibre-optic probes were inserted into the cerebral cortex, renal cortex and renal medulla for measurement of tissue perfusion, pO2 and temperature (see Calzavacca et al., 2015, Am J Physiol Regul Integr Comp Physiol 308, R832-839). Catheters were inserted into the renal and jugular veins, carotid artery and bladder. The experiments were undertaken five days later. Intra-operative analgesics and antibiotics were administered as described previously (Lankadeva et al., 2019, Kidney Int 95 1338-1346; Evans et al., 2020, Am J Physiol Regul Integr Comp Physiol 318, R206-R213; Lankadeva et al., 2021, Acta Physiologica doi.org/10.1111/apha.13596, e13596). Mean arterial pressure, renal blood flow, cerebral cortical, renal cortical and renal medullary tissue perfusion, and temperature were continuously recorded across a series of experimental periods. Arterial, mixed venous and renal venous blood samples were collected every 30 min for blood oximetry and biochemistry (ABL systems 625, Copenhagen, Denmark).
During the first 30 minutes, sheep were awake and unrestrained in their home metabolic cage. Anaesthesia was induced with sodium thiopental (15 mg/kg) and after endotracheal intubation, maintained on isoflurane (2.0%-2.5%) via an artificial ventilator prior to cardiopulmonary bypass or via a membrane oxygenator during cardiopulmonary bypass (FiO2: 60%). This FiO2 was chosen because it is standard during cardiac surgery at the inventors affiliated clinical centre. From the onset of anaesthesia, sheep received a maintenance infusion of compound sodium lactate (2 mL/kg/h; Baxter, NSW, Australia) for the entire duration of the experiment. Once stable anaesthesia was attained, a second experimental period (30 minutes) commenced. Cardiopulmonary bypass was then achieved at a target pump flow of 80 mL/kg/min, a target MAP of 65 mmHg, and a target body temperature of 34.5° C. The prefusion circuit was primed with 300-500 mL of blood from a donor animal, 1 g cefazolin (AFT Pharmaceuticals, NSW, Australia), 50 mL mannitol (20% wt/vol Osmitrol, Baxter, NSW, Australia) and 10 000 IU heparin, made up to 1.3 L with compound sodium lactate. Metaraminol (Metaraminol Montrose, Montrose Life Sciences, NSW, Australia) was administered in boluses of ˜0.25 mg (using a 0.5 mg/mL solution) only in cases where increasing pump flow was not sufficient to attain the target mean arterial pressure during cardiopulmonary bypass. Once stable cardiopulmonary bypass was attained, the sheep was maintained for ˜2 hours before starting a zinc bis(histidinate) infusion (18 mg/ml solution made freshly in 0.45% saline solution and filtered). For the first 20 min, volume equivalent to 3 mg/kg zinc bis(histidinate) was infused, followed by 20 minute of 10 mg/kg and then 20 min of 30 mg/kg zinc bis(histidinate). Plasma was collected every 30 min following the start of anaesthesia. Zinc levels in plasma were analysed using inductively coupled plasma mass spectroscopy (ICP-MS).

[4] = listed as Zinc bis(histidinate)

## NCCCC[C@H](NC(=O)[C@@H](Cc1cc(Br)c(O)c(Br)c1)NC(=O)N1CCC(N2Cc3ccccc3NC2=O)CC1)C(=O)N1CCN(c2ccncc2)CC1 [BIBN4096, olcegepant]
CGRP receptors
  Effect on zinc bis(histidinate)-induced vasodilation (area under the vasodilation curve, LDF): reduction in vasodilation; also recorded: attenuated the effect

## N[C@@H](Cc1c[nH]cn1)C(=O)O [L-histidine, reference compound]
Rat hind paw
  Cutaneous blood flow (laser Doppler flux): did result in the same increase
Rat hind paw; listed as L-His
  Cutaneous blood flow (laser Doppler flux): did not cause an increase in cutaneous blood flow

## C[C@H](N)[C@H](O)c1cccc(O)c1 [Metaraminol]
[1]
  Systemic vascular conductance: increased systemic vascular conductance

## CNC([S-])=NN=C(C)C(C)=NN=C([S-])NC.[Zn+2] [Zn(DTSM)]
Rat mesenteric arteries
  Relaxation of rat mesenteric arteries: showed relaxation

## Oc1c(I)cc(Cl)c2cccnc12 [clioquinol]
Rat mesenteric arteries
  Relaxation of rat mesenteric arteries: showed relaxation

## N[C@@H](Cc1c[nH]cn1)C(=O)O [histidine]
Rat mesenteric arteries
  Relaxation of rat mesenteric arteries: did not provide the same relaxation; also recorded: little relaxation

## [Zn] [zinc]
Rat mesenteric arteries
  Relaxation of rat mesenteric arteries: minimal effects; also recorded: little relaxation

## zinc bis(histidinate)
Rat mesenteric arteries
  Relaxation of rat mesenteric arteries: showed relaxation; also recorded: greater relaxation
Rat mesenteric arteries; listed as zinc-bis-histidinate
  Relaxation of rat mesenteric arteries: dependent on the concentration
Rat hind paw
  Cutaneous blood flow (laser Doppler flux): increased cutaneous blood flow
Rat hind paw; [4]
  Cutaneous blood flow (laser Doppler flux): caused an increase in cutaneous blood flow
Rat hind paw; listed as zinc bis(histidine)
  Cutaneous blood flow (laser Doppler flux): increased blood flow
[2]
  Mean arterial pressure: expected decrease in arterial pressure was not observed
[2]; [4]
  Mean arterial pressure: does not change mean arterial pressure
[3]
  Cerebral cortical microcirculatory perfusion: rescued
  Renal blood flow: dose-dependent improvement
  Renal cortical microcirculatory perfusion: rescued
  Renal medullary microcirculatory perfusion: rescued
  Renal oxygen delivery: dose-dependent improvement
  Renal vascular resistance: dose-dependent improvement
  Systemic mean arterial pressure: without compromising systemic mean arterial pressure

## zinc disulfiram
Rat mesenteric arteries
  Relaxation of rat mesenteric arteries: showed relaxation

## zinc pyrithione
Rat mesenteric arteries
  Relaxation of rat mesenteric arteries: showed relaxation
